Measurements taken from patent publication US11278526B2, “Compounds and methods for treating lupus” (RECEPTOS LLC, priority 2016, dated 2022).
Entries after “also recorded” stand apart in the source; their conditions may differ.

Legend:
Type in all cases: in vivo
NZBWF1 mice [1] = experiment: Survival in NZBWF1 SLE mouse model; details: 0.3, 1.0, 3.0 mg/kg PO QD, Logrank p=0.0229, 0.0308, 0.0201
Procedure: As in Example 2, compound 5 was tested for efficacy in the same NZB×NZW F1 (“NZBWF1”) mouse model for SLE as compound 148. Six groups of NZBWF1 mice (Jackson Laboratories, stock #100008) were used in the study and were acclimated to the research facility for 6 weeks prior to the start of the study. Weekly measurements of proteinuria (excess serum proteins present in the urine) and body weight began at 20 weeks of age. At 22 weeks of age, the mice were assigned to groups in a balanced manner in order to achieve average body weight and average proteinuria measurements across the groups. One “naive” group consisting of 10 mice was euthanized at the start of treatment and used as a source of tissue for analysis. Treatment began at 22 weeks of age.
The five treatment groups were administered cyclophosphamide (positive control, 20 mice; introduced gradually to reduce toxicity (IP, once a week, 10 mg/kg at Weeks 22 and 23 and 50 mg/kg from Week 24 to the end of the study)), vehicle (negative control, 20 mice), or compound 5 (three groups of 20 mice), beginning at 22 weeks of age and observed over the course of 20 weeks. The three groups dosed with compound 5 received 0.3, 1.0, and 3.0 mg/kg PO QD, respectively (20 mice per dosage). Surviving animals were sacrificed at 42 weeks. […] Disease development was evaluated as disclosed in the following examples.

NZBWF1 mice [2] = experiment: Serum blood urea nitrogen (BUN) at termination
Procedure: (§1) Lymphocyte counts were measured from whole blood taken at 23, 31, and 36.5 weeks using flow cytometry. Cells were gated for CD4+ T cells, CD8+ T cells, and CD19+ B cells. […] Serum blood urea nitrogen (BUN) was also measured at termination to assess kidney function.
As in Example 4, serum blood urea nitrogen (BUN) was measured at termination to assess kidney function.

anti-dsDNA antibodies = experiment: Serum anti-dsDNA antibody titers by ELISA; details: NZBWF1 mice
Procedure: Serum anti-dsDNA antibody titers are used as an indicator of SLE state (see, e.g., Kavanaugh et al., “Guidelines for Clinical Use of the Antinuclear Antibody Test and Tests for Specific Autoantibodies to Nuclear Antigens”, Archives of Pathology & Laboratory Medicine, 124:1, 71-81 (2000)) in most (although not all) patient populations, (see, Isenberg et al., Rheumatology 46:1052-1056, 2007). Titers were measured at 23, 31, 36.5, and 42 weeks. ELISA was performed using an anti-dsDNA ELISA kit (Shibayagi Co., Ltd., cat. no. RSHAKRDD061) following manufacturer's protocol. Results were expressed as optical density (OD) and as arbitrary units per mL. The ELISA standard curve was generated from a pool of sera from mice used a previous study with a known high concentration of anti-dsDNA antibodies. The highest concentration used in the standard curve was 1:100 of that pooled sera. All test samples were diluted 1000-fold for testing. Data was analyzed using http://www.elisaanalysis.com.
As in Example 8, serum anti-dsDNA antibody titers were measured at 22, 30, 36, and 42 weeks. ELISA was performed using an anti-dsDNA ELISA kit.

[3] = system: CD4+ T cells, CD8+ T cells, and CD19+ B cells; experiment: Peripheral lymphocyte counts from whole blood by flow cytometry; details: NZBWF1 mice
Procedure: as §1

NZBWF1 mice [4] = experiment: Tertiary Lymphatic Tissue (TLT) scoring in kidney histology
Excerpt: To directly assay disease progression, left kidney histology was observed and sections were stained using H&E (left kidney fixed in 4% PFA prior to staining for infiltrating PMN, lymphocytes, and TLTs) or PAS (for analysis of glomerular glycogen and glycoproteins). No neutrophils were observed. The number of aggregates was counted per section.

[5] = system: inflammatory and immune response genes; experiment: Kidney mRNA levels of inflammatory and immune response genes (QuantiGene Multiplex Assay); details: NZBWF1 mice; 3 mpk PO; n=5
Procedure: (§2) As explained above, SLE is characterized by aberrant recognition of healthy “self” tissue as antigenic. The resulting immune response is characterized by inflammation. To measure SLE status, mRNA levels were measured for an array of inflammatory and immune response genes from kidneys collected at termination or week 23 (naïve) and stored in RNAlater (n=5). mRNA was quantified using QuantiGene Multiplex Assay.

profibrotic genes = experiment: Kidney mRNA levels of profibrotic genes; details: NZBWF1 mice
Procedure: as §2
SLE-related inflammation can lead to fibrotic scarring. mRNA levels were measured for an array of profibrotic genes. […] Expression signals of MMP10, IL-2, IL-6, and TNF were also measured, but were below LLOQ (data not shown).

IFNα = experiment: Serum IFNα by ELISA; details: NZBWF1 mice; all treatment groups 0.3, 1.0, 3.0 mg/kg PO QD; weeks 23, 29, 36, 42; assay sensitivity 7.48 pg/ml
Procedure: (§3) As discussed above, IFNAR1 (Interferon alpha receptor 1) and its ligand IFNα are important modulators of lupus-associated autoimmune response in humans. Serum IFNα was measured by ELISA (eBioscience kit) at 23, 29, 36, and 42 weeks (FIG. 17). Assay sensitivity was 7.48 pg/ml (dotted line). […] However, several samples at multiple time points were below the sensitivity of the assay (data not shown), consistent with reports that the NZBWF1 model has a weak IFNα signature. To determine whether compound 148 affected IFNAR1 expression, percent surface expression and MFI expression were measured in pDC cells at termination (FIGS. 18A and 18B, respectively).

IFNAR1 = IFNAR1 expression in splenic pDC cells; details: NZBWF1 mice, at termination, after five months of treatment
Procedure: as §3

IFN-inducible genes = experiment: mRNA expression of genes responsive to type-1 interferon signaling; details: NZBWF1 mice; 3 mpk PO

Compound: CC(C)Oc1ccc(-c2nc(-c3cccc4c3CC[C@@H]4NCCO)no2)cc1C#N [compound 5, (S)-5-(3-(1-(2-hydroxyethylamino)-2,3-dihydro-1H-inden-4-yl)-1,2,4-oxadiazol-5-yl)-2-isopropoxy benzonitrile]
- Survival compared to vehicle (NZBWF1 mice [1]): improved survival compared to vehicle treated animals
- Serum BUN at termination vs vehicle (NZBWF1 mice [2]; all doses 0.3, 1.0, 3.0 mg/kg PO QD): significant reduction in serum BUN
- Serum anti-dsDNA antibody titers (anti-dsDNA antibodies; 3 mg/kg PO QD, week 42, less than cyclophosphamide): decreased antibody titers at week 42

Compound: CC(C)Oc1ccc(-c2nc(-c3cccc4c3CC[C@@H]4N)no2)cc1C#N [compound 148, (S)-5-(3-(1-amino-2,3-dihydro-1H-inden-4-yl)-1,2,4-oxadiazol-5-yl)-2-isopropoxy-benzonitrile]
- Reduction of overall lymphocyte counts relative to vehicle ([3]; whole blood at 23, 31 and 36.5 weeks, all three doses (0.3, 1.0, 3.0 mg/kg PO QD), p<0.05): > 90%
- CD4+ T cell and CD8+ T cell counts relative to cyclophosphamide ([3]; whole blood, flow cytometry): Significant reductions
- Serum BUN at termination vs vehicle (NZBWF1 mice [2]; 3 mg/kg PO QD, p<0.05): significant reduction in serum BUN
- Kidney TLT scores compared to naïve mice (NZBWF1 mice [4]; 1.0 mg/kg or 3.0 mg/kg PO QD): TLT scores similar to naïve mice
- Kidney TLT scores relative to vehicle (NZBWF1 mice [4]; 0.3, 1.0, 3.0 mg/kg PO QD, p<0.05, lesser degree than cyclophosphamide): significantly reduced TLT scores relative to vehicle
- Serum anti-dsDNA antibody titers (anti-dsDNA antibodies; all three dosages 0.3, 1.0, 3.0 mg/kg PO QD, ELISA optical density): decreased antibody titers at week 29; also recorded: decrease was not sustained over the course of the study
- Kidney mRNA level of CCL5 relative to control [5]: decreased levels
- Kidney mRNA level of CXCL9 relative to control [5]: decreased levels
- Kidney mRNA level of CXCL10 relative to control [5]: decreased levels
- Kidney mRNA level of IL-1β relative to control [5]: decreased levels
- Kidney mRNA level of IL-10 relative to control [5]: decreased levels
- Kidney mRNA level of TNFSF13b/BAFF relative to control [5]: decreased levels
- mRNA level of Cdcd88a/Girdin relative to control (profibrotic genes; 3 mpk PO): decreased levels
- mRNA level of LOXL1 relative to control (profibrotic genes; 3 mpk PO): decreased levels
- mRNA level of Lipocalin 2 relative to control (profibrotic genes; 3 mpk PO): decreased levels
- mRNA level of TGFβ2 relative to control (profibrotic genes; 3 mpk PO): decreased levels
- mRNA level of TIMP1 relative to control (profibrotic genes; 3 mpk PO): decreased levels
- mRNA level of Transgelin relative to control (profibrotic genes; 3 mpk PO): decreased levels
- IFGBP2 mRNA levels (profibrotic genes; following administration of compound 148): appeared to increase somewhat
- Serum IFNα levels compared to vehicle (IFNα): lower serum IFNα levels compared to vehicle
- MFI of IFNAR1 expression in pDC cells (IFNAR1): very little difference between the groups
- Percent surface expression of IFNAR1 in pDC cells (IFNAR1): very little difference between the groups
- Expression levels of IFN-inducible genes (mRNA) (IFN-inducible genes): no significant effect
